Patent US10227331B2 (priority 2015, dated 2019)

Columns and labels:
IMP-1 = IMP-1 (Serratia marcescens, UniProt P52699); assay: biochemical; format: biochemical; settings: CCF2-FA substrate, 2 hours at 25° C; read-out: IMP-1 IC50
Summary of the method: (§1)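 IC50 values derive from 4-parameter fits of percent inhibition against inhibitor concentration on semi-log axes. Activity was monitored by fluorescence with the CCF2-FA substrate after a 2-hour, 25° C incubation of compound, enzyme and substrate.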

NDM-1 = NDM-1 (Klebsiella pneumoniae, UniProt C7C422); assay: biochemical; format: biochemical; settings: CCF2-FA substrate, 2 hours at 25° C; read-out: NDM-1 IC50
Summary of the method: as §1

VIM-1 = VIM-1 (Pseudomonas aeruginosa (strain ATCC 15692 / DSM 22644 / CIP 104116 / JCM 14847 / LMG 12228 / 1C / PRS 101 / PAO1), UniProt A0A0F7KYQ8); assay: biochemical; settings: CCF2-FA substrate, 2 hours at 25° C
Summary of the method: as §1

[1] = tested on: Escherichia coli expressing NDM-1 (CLB30005, CLB30016); format: cell-based; settings: with imipenem 1 μg/ml; 95% inhibition of bacterial growth
Summary of the method: (§2)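 Restoration of imipenem susceptibility (1 μg/ml imipenem) was judged by absorbance after 22–24 h at 35° C. Test compound was added to bacteria suspended 1:100 in 1.1× CAMHB from overnight blood-agar cultures.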

[2] = tested on: Klebsiella pneumoniae expressing VIM-1 (IHMA599644); format: cell-based; settings: with imipenem 1 μg/ml; 95% inhibition of bacterial growth
Summary of the method: as §2

[3] = tested on: Serratia marcescens expressing IMP-1 (CL5741); format: cell-based; settings: with imipenem 1 μg/ml; 95% inhibition of bacterial growth
Summary of the method: as §2

[4] = tested on: P. aeruginosa expressing IMP-1, efflux+ (MB9798); format: cell-based, Pseudomonas aeruginosa; settings: for P. aeruginosa expressing IMP-1, efflux+ (MB9798) MITC95: imipenem at 2 μg/mL, in the presence of a class A, C, D serine β-lactamase inhibitor closely related to relebactam; for Efflux ratio: ratio MITC95 PA_9798/MITC95 PA_9799
Description: (§3) The strain background is Pseudomonas aeruginosa PAO1.

[5] = tested on: P. aeruginosa expressing IMP-1, efflux− (MB9799); assay: Efflux: concentration of MBL inhibitor which restores susceptibility to imipenem; format: cell-based, Pseudomonas aeruginosa; settings: imipenem at 2 μg/mL, in the presence of a class A, C, D serine β-lactamase inhibitor closely related to relebactam
Description: as §3

NDM-1, sequence (C7C422 whole entry, looked up, species assumed): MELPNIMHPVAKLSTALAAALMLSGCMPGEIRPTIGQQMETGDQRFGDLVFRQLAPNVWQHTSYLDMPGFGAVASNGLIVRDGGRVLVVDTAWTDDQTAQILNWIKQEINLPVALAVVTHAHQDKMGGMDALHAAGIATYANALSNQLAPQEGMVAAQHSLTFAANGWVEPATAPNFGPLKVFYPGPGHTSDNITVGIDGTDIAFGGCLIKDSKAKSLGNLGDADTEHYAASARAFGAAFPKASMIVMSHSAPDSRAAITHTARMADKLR
IMP-1, sequence (P52699 whole entry, looked up, species assumed): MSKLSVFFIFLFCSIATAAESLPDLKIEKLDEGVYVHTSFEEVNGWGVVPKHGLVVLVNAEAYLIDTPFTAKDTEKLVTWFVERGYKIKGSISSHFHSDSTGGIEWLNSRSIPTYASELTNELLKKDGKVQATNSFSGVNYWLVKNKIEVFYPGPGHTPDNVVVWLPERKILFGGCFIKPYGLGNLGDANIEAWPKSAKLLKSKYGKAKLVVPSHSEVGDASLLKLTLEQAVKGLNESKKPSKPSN

## NS(=O)(=O)c1c(S(=O)(=O)C2CNC2)ccc(-c2ccc3cnccc3c2)c1-c1nnn[nH]1.O=C(O)C(F)(F)F [Example 116, 3-((4-(isoquinolin-6-yl)-2-sulfamoyl-3-(1H-tetrazol-5-yl)phenyl)sulfonyl)azetidin-1-ium 2,2,2-trifluoroacetate]
IMP-1
  IC50: 0.722 nM
NDM-1
  IC50: 0.199 nM
VIM-1
  IC50: 0.177 nM
[1]
  Escherichia coli expressing NDM-1 (CLB30016) MITC95: 1.563 µM
[2]
  Klebsiella pneumoniae expressing VIM-1 (IHMA599644) MITC95: 3.125 µM
[3]
  Serratia marcescens expressing IMP-1 (CL5741) MITC95: 3.125 µM
[4]
  P. aeruginosa expressing IMP-1, efflux+ (MB9798) MITC95: 25 µM
  Efflux ratio: 15.99
[5]
  P. aeruginosa expressing IMP-1, efflux− (MB9799) MITC95: 1.563 µM

## NS(=O)(=O)c1c(S(=O)(=O)C2CNC2)ccc(-c2ccc3nccnc3c2)c1-c1nnn[nH]1.O=C(O)C(F)(F)F [Example 117, 3-((4-(quinoxalin-6-yl)-2-sulfamoyl-3-(1H-tetrazol-5-yl)phenyl)sulfonyl)azetidin-1-ium 2,2,2-trifluoroacetate]
IMP-1
  IC50: 1.41 nM
NDM-1
  IC50: 0.93 nM
VIM-1
  IC50: 0.431 nM
[1]
  Escherichia coli expressing NDM-1 (CLB30016) MITC95: 6.25 µM
[2]
  Klebsiella pneumoniae expressing VIM-1 (IHMA599644) MITC95: 6.25 µM
[3]
  Serratia marcescens expressing IMP-1 (CL5741) MITC95: 3.125 µM
[4]
  P. aeruginosa expressing IMP-1, efflux+ (MB9798) MITC95: 25 µM
  Efflux ratio: 15.99
[5]
  P. aeruginosa expressing IMP-1, efflux− (MB9799) MITC95: 1.563 µM

## NS(=O)(=O)c1c(S(=O)(=O)C2CNC2)ccc(-c2cccc3ncccc23)c1-c1nnn[nH]1.O=C(O)C(F)(F)F [Example 118, 3-((4-(quinolin-5-yl)-2-sulfamoyl-3-(1H-tetrazol-5-yl)phenyl)sulfonyl)azetidin-1-ium 2,2,2-trifluoroacetate]
IMP-1
  IC50: 1.42 nM
NDM-1
  IC50: 0.145 nM
VIM-1
  IC50: 0.388 nM
[1]
  Escherichia coli expressing NDM-1 (CLB30016) MITC95: 3.125 µM
[2]
  Klebsiella pneumoniae expressing VIM-1 (IHMA599644) MITC95: 6.25 µM
[3]
  Serratia marcescens expressing IMP-1 (CL5741) MITC95: 6.25 µM
[4]
  P. aeruginosa expressing IMP-1, efflux+ (MB9798) MITC95: 12.5 µM
  Efflux ratio: 4.00
[5]
  P. aeruginosa expressing IMP-1, efflux− (MB9799) MITC95: 3.125 µM

## Cn1nnc2ccc(-c3ccc(S(=O)(=O)C4CNC4)c(S(N)(=O)=O)c3-c3nnn[nH]3)cc21.O=C(O)C(F)(F)F [Example 119, 3-((4-(1-methyl-1H-benzo[d][1,2,3]triazol-6-yl)-2-sulfamoyl-3-(1H-tetrazol-5-yl)phenyl)sulfonyl)azetidin-1-ium 2,2,2-trifluoroacetate]
IMP-1
  IC50: 5.74 nM
NDM-1
  IC50: 1.8 nM
VIM-1
  IC50: 0.506 nM
[1]
  Escherichia coli expressing NDM-1 (CLB30016) MITC95: 6.25 µM
[2]
  Klebsiella pneumoniae expressing VIM-1 (IHMA599644) MITC95: 6.25 µM
[3]
  Serratia marcescens expressing IMP-1 (CL5741) MITC95: 6.25 µM
[4]
  P. aeruginosa expressing IMP-1, efflux+ (MB9798) MITC95: 100 µM
  Efflux ratio: 63.98
[5]
  P. aeruginosa expressing IMP-1, efflux− (MB9799) MITC95: 1.563 µM

## NS(=O)(=O)c1c(S(=O)(=O)C2CNC2)ccc(-c2csc(N3CCCC3)n2)c1-c1nnn[nH]1.O=C(O)C(F)(F)F [Example 120, 3-((4-(2-(pyrrolidin-1-yl)thiazol-4-yl)-2-sulfamoyl-3-(1H-tetrazol-5-yl)phenyl)sulfonyl)azetidin-1-ium 2,2,2-trifluoroacetate]
IMP-1
  IC50: 0.553 nM
NDM-1
  IC50: 0.755 nM
VIM-1
  IC50: 1.42 nM
[1]
  Escherichia coli expressing NDM-1 (CLB30016) MITC95: 3.125 µM
[2]
  Klebsiella pneumoniae expressing VIM-1 (IHMA599644) MITC95: 6.25 µM
[3]
  Serratia marcescens expressing IMP-1 (CL5741) MITC95: 3.125 µM
[4]
  P. aeruginosa expressing IMP-1, efflux+ (MB9798) MITC95: 25 µM
  Efflux ratio: 15.99
[5]
  P. aeruginosa expressing IMP-1, efflux− (MB9799) MITC95: 1.563 µM

## NS(=O)(=O)c1c(S(=O)(=O)C2CNC2)ccc(-c2cnc(N3CCCC3)s2)c1-c1nnn[nH]1.O=C(O)C(F)(F)F [Example 121, 3-((4-(2-(pyrrolidin-1-yl)thiazol-5-yl)-2-sulfamoyl-3-(1H-tetrazol-5-yl)phenyl)sulfonyl)azetidin-1-ium 2,2,2-trifluoroacetate]
IMP-1
  IC50: 3.57 nM
NDM-1
  IC50: 0.74 nM
VIM-1
  IC50: 1.44 nM
[1]
  Escherichia coli expressing NDM-1 (CLB30016) MITC95: 0.7813 µM
[2]
  Klebsiella pneumoniae expressing VIM-1 (IHMA599644) MITC95: 6.25 µM
[3]
  Serratia marcescens expressing IMP-1 (CL5741) MITC95: 3.125 µM
[4]
  P. aeruginosa expressing IMP-1, efflux+ (MB9798) MITC95: 200 µM
  Efflux ratio: 127.96
[5]
  P. aeruginosa expressing IMP-1, efflux− (MB9799) MITC95: 1.563 µM

## Cc1ccc2cccc(-c3ccc(S(=O)(=O)C4CNC4)c(S(N)(=O)=O)c3-c3nnn[nH]3)c2n1.O=C(O)C(F)(F)F [Example 122, 3-((4-(2-methylquinolin-8-yl)-2-sulfamoyl-3-(1H-tetrazol-5-yl)phenyl)sulfonyl)azetidin-1-ium 2,2,2-trifluoroacetate]
IMP-1
  IC50: 0.57 nM
NDM-1
  IC50: 0.155 nM
VIM-1
  IC50: 0.324 nM
[1]
  Escherichia coli expressing NDM-1 (CLB30016) MITC95: 3.125 µM
[2]
  Klebsiella pneumoniae expressing VIM-1 (IHMA599644) MITC95: 6.25 µM
[3]
  Serratia marcescens expressing IMP-1 (CL5741) MITC95: 3.125 µM
[4]
  P. aeruginosa expressing IMP-1, efflux+ (MB9798) MITC95: 6.25 µM
  Efflux ratio: 4.00
[5]
  P. aeruginosa expressing IMP-1, efflux− (MB9799) MITC95: 1.563 µM

## Cn1ncc2c(-c3ccc(S(=O)(=O)C4CNC4)c(S(N)(=O)=O)c3-c3nnn[nH]3)cccc21.O=C(O)C(F)(F)F [Example 123, 3-((4-(1-methyl-1H-indazol-4-yl)-2-sulfamoyl-3-(1H-tetrazol-5-yl)phenyl)sulfonyl)azetidin-1-ium 2,2,2-trifluoroacetate]
IMP-1
  IC50: 1.14 nM
NDM-1
  IC50: 0.168 nM
VIM-1
  IC50: 0.215 nM
[1]
  Escherichia coli expressing NDM-1 (CLB30016) MITC95: 1.563 µM
[2]
  Klebsiella pneumoniae expressing VIM-1 (IHMA599644) MITC95: 3.125 µM
[3]
  Serratia marcescens expressing IMP-1 (CL5741) MITC95: 3.125 µM
[4]
  P. aeruginosa expressing IMP-1, efflux+ (MB9798) MITC95: 25 µM
  Efflux ratio: 15.99
[5]
  P. aeruginosa expressing IMP-1, efflux− (MB9799) MITC95: 1.563 µM

## NS(=O)(=O)c1c(S(=O)(=O)C2CNC2)ccc(-c2csc(N3CCOCC3)n2)c1-c1nnn[nH]1.O=C(O)C(F)(F)F [Example 124, 3-((4-(2-morpholinothiazol-4-yl)-2-sulfamoyl-3-(1H-tetrazol-5-yl)phenyl)sulfonyl)azetidin-1-ium 2,2,2-trifluoroacetate]
IMP-1
  IC50: 6.1 nM
NDM-1
  IC50: 1.5 nM
VIM-1
  IC50: 4.95 nM
[1]
  Escherichia coli expressing NDM-1 (CLB30016) MITC95: 3.125 µM
[2]
  Klebsiella pneumoniae expressing VIM-1 (IHMA599644) MITC95: 12.5 µM
[3]
  Serratia marcescens expressing IMP-1 (CL5741) MITC95: 6.25 µM
[4]
  P. aeruginosa expressing IMP-1, efflux+ (MB9798) MITC95: 200 µM
  Efflux ratio: 127.96
[5]
  P. aeruginosa expressing IMP-1, efflux− (MB9799) MITC95: 1.563 µM

## NS(=O)(=O)c1c(S(=O)(=O)C2CNC2)ccc(-c2cccc(C3CCC(=O)N3)c2)c1-c1nnn[nH]1.O=C(O)C(F)(F)F (stereo not drawn) [Example 125, 3-((3′-(5-oxopyrrolidin-2-yl)-3-sulfamoyl-2-(1H-tetrazol-5-yl)-[1,1′-biphenyl]-4-yl)sulfonyl)azetidin-1-ium 2,2,2-trifluoroacetate]
IMP-1
  IC50: 5.23 nM
NDM-1
  IC50: 4.02 nM
VIM-1
  IC50: 2.54 nM
[1]
  Escherichia coli expressing NDM-1 (CLB30016) MITC95: 6.25 µM
[2]
  Klebsiella pneumoniae expressing VIM-1 (IHMA599644) MITC95: 6.25 µM
[3]
  Serratia marcescens expressing IMP-1 (CL5741) MITC95: 6.25 µM
[4]
  P. aeruginosa expressing IMP-1, efflux+ (MB9798) MITC95: 50 µM
  Efflux ratio: 16.00
[5]
  P. aeruginosa expressing IMP-1, efflux− (MB9799) MITC95: 3.125 µM

## Cc1n[nH]c2ccc(-c3ccc(S(=O)(=O)C4CNC4)c(S(N)(=O)=O)c3-c3nnn[nH]3)cc12.O=C(O)C(F)(F)F [Example 126, 3-((4-(3-methyl-1H-indazol-5-yl)-2-sulfamoyl-3-(1H-tetrazol-5-yl)phenyl)sulfonyl)azetidin-1-ium 2,2,2-trifluoroacetate]
IMP-1
  IC50: 0.715 nM
NDM-1
  IC50: 0.428 nM
VIM-1
  IC50: 0.477 nM
[1]
  Escherichia coli expressing NDM-1 (CLB30016) MITC95: 3.125 µM
[2]
  Klebsiella pneumoniae expressing VIM-1 (IHMA599644) MITC95: 6.25 µM
[3]
  Serratia marcescens expressing IMP-1 (CL5741) MITC95: 6.25 µM
[4]
  P. aeruginosa expressing IMP-1, efflux+ (MB9798) MITC95: 12.5 µM
  Efflux ratio: 8.00
[5]
  P. aeruginosa expressing IMP-1, efflux− (MB9799) MITC95: 1.563 µM

## NS(=O)(=O)c1c(S(=O)(=O)C2CNC2)ccc(-c2ccc3cn[nH]c3c2)c1-c1nnn[nH]1.O=C(O)C(F)(F)F [Example 127, 3-((4-(1H-indazol-6-yl)-2-sulfamoyl-3-(1H-tetrazol-5-yl)phenyl)sulfonyl)azetidin-1-ium 2,2,2-trifluoroacetate]
IMP-1
  IC50: 3.01 nM
NDM-1
  IC50: 0.429 nM
VIM-1
  IC50: 0.428 nM
[1]
  Escherichia coli expressing NDM-1 (CLB30016) MITC95: 0.7813 µM
[2]
  Klebsiella pneumoniae expressing VIM-1 (IHMA599644) MITC95: 3.125 µM
[3]
  Serratia marcescens expressing IMP-1 (CL5741) MITC95: 3.125 µM
[4]
  P. aeruginosa expressing IMP-1, efflux+ (MB9798) MITC95: 25 µM
  Efflux ratio: 15.99
[5]
  P. aeruginosa expressing IMP-1, efflux− (MB9799) MITC95: 1.563 µM
